≈ marks a conversion by molar mass, not a printed value. One block for each molecule: values may come before it.
How the values were obtained:
[1] = system: staphyloxanthin pigment formation; conditions: read-out: carotenoid pigment formation in cells IC50; cited from earlier work
[2] = biological target: T1, S. aureus CrtM (Staphylococcus aureus, UniProt A9JQL9); conditions: read-out: CrtM IC50; cited from earlier work
[3] = biological target: T2, S. aureus UPPS (Staphylococcus aureus, UniProt P60477); test: S. aureus UPPS inhibition; assay type: biochemical
T2 sequence (P60477 1-256): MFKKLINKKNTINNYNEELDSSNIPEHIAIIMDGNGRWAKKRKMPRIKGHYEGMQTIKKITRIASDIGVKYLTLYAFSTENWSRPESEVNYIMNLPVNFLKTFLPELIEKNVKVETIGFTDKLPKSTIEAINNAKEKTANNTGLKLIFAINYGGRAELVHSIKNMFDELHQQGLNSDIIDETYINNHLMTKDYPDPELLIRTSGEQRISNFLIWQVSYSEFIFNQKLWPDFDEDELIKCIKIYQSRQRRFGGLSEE

[4] = system: USA300 (MRSA) strain of S. aureus; test: S. aureus cell growth inhibition; assay type: cell-based; conditions: Staphylococcus aureus, MRSA|USA300, read-out: MIC90 against S. aureus
[5] = system: E. coli; test: E. coli cell growth inhibition; assay type: cell-based; conditions: DH5α, K12
[6] = system: MCF-7; test: Toxicity against human cell line; assay type: cell-based
[7] = system: FPPS; conditions: background statement, no reference given; cited from earlier work
[8] = system: bacteria; conditions: background statement, no reference given; cited from earlier work
[9] = biological target: T1, S. aureus CrtM; test: S. aureus CrtM; assay type: biochemical

SMILES: O=P(O)(O)C(CCCc1cccc(Oc2ccccc2)c1)S(=O)(=O)O (stereo not shown) [Compound 3]
IC50 [1]: ~110 nM | IC50 [2]: ~7900 nM

Ki [3]: 230 nM
SMILES: CCCCCCCCCCOc1cccc(C(=O)/C=C(\O)C(=O)O)c1 [Compound 44]

Ki [3]: 670 nM | MIC90 [4]: 0.25 to 0.5 µg/mL (≈ 0.78 to 1.56 µM)
SMILES: CCCCCCCCOc1ccc(C(=O)/C=C(\O)C(=O)O)cc1 [Compound 45]
activity against E. coli [5]: very little activity | activity against human cell lines [6]: very little activity

SMILES: O=P(O)(O)C(O)(Cn1ccnc1)P(=O)(O)O [zoledronate]
FPPS inhibition potency [7]: potent, low nM inhibitors | antibacterial activity [8]: little antibacterial activity

SMILES: CCCCCCCCCCOc1cccc(Cn2ccc(O)c(C(=O)O)c2=O)c1 [Compound 42]
CrtM inhibition, in words [9]: no activity

Source: PMC3363326 (ACS medicinal chemistry letters, 2012)
